Results from the supplement of paper PMC13380429.

Legend:
Conditions in all cases: 72 h
HepG2 [1] = test: cell viability relative to DMSO; higher = less toxic
U2OS [2] = test: as above
Caco-2 [3] = test: as above
Vero E6 [4] = test: as above
Calu-3 [5] = test: as above
HepG2 [6] = test: drug sensitivity score (DSS) for viability; higher = more toxic; extreme values may be limits of the assay
U2OS [7] = test: as above
Caco-2 [8] = test: as above
Vero E6 [9] = test: as above
Calu-3 [10] = test: as above
HepG2 [11] = test: relative viability EC50 (midpoint between 100% and the lowest measured viability); higher = less toxic
U2OS [12] = test: as above
Caco-2 [13] = test: as above
Vero E6 [14] = test: as above
Calu-3 [15] = test: as above

| Structure (SMILES) | cell viability (HepG2 [1]; 1 nM) | cell viability (HepG2 [1]; 10 nM) | cell viability (HepG2 [1]; 100 nM) | cell viability (HepG2 [1]; 1000 nM) | cell viability (HepG2 [1]; 10000 nM) | cell viability (U2OS [2]; 1 nM) | cell viability (U2OS [2]; 10 nM) | cell viability (U2OS [2]; 100 nM) | cell viability (U2OS [2]; 1000 nM) | cell viability (U2OS [2]; 10000 nM) | cell viability (Caco-2 [3]; 1 nM) | cell viability (Caco-2 [3]; 10 nM) | cell viability (Caco-2 [3]; 100 nM) | cell viability (Caco-2 [3]; 1000 nM) | cell viability (Caco-2 [3]; 10000 nM) | cell viability (Vero E6 [4]; 1 nM) | cell viability (Vero E6 [4]; 10 nM) | cell viability (Vero E6 [4]; 100 nM) | cell viability (Vero E6 [4]; 1000 nM) | cell viability (Vero E6 [4]; 10000 nM) | cell viability (Calu-3 [5]; 1 nM) | cell viability (Calu-3 [5]; 10 nM) | cell viability (Calu-3 [5]; 100 nM) | cell viability (Calu-3 [5]; 1000 nM) | cell viability (Calu-3 [5]; 10000 nM) | drug sensitivity score (HepG2 [6]) | drug sensitivity score (U2OS [7]) | drug sensitivity score (Caco-2 [8]) | drug sensitivity score (Vero E6 [9]) | drug sensitivity score (Calu-3 [10]) | relative viability EC50 (HepG2 [11]) | relative viability EC50 (U2OS [12]) | relative viability EC50 (Caco-2 [13]) | relative viability EC50 (Vero E6 [14]) | relative viability EC50 (Calu-3 [15]) |
| --- | --- | --- | --- | --- | --- | --- | --- | --- | --- | --- | --- | --- | --- | --- | --- | --- | --- | --- | --- | --- | --- | --- | --- | --- | --- | --- | --- | --- | --- | --- | --- | --- | --- | --- | --- |
| NC1=NCC2c3ccccc3Cc3ccccc3N12 (stereo not given) [epinastine] | 97.3% | 102% | 105% | 99.1% | 102% | 97% | 102% | 91.7% | 92.8% | 98.6% | 91.6% | 87.4% | 95% | 98.9% | 93.3% | 98.6% | 105% | 99.7% | 96% | 99.5% | 99.3% | 103% | 98.2% | 98% | 92% | 0 | 0 | 0 | 0 | 0 | > 10 µM | > 10 µM | > 10 µM | > 10 µM | > 10 µM |
| C[C@@H]1CN(Cc2ncccn2)C[C@H]1c1nc2c(cnn2C2CCOCC2)c(=O)[nH]1 | 99.2% | 94% | 100% | 96.5% | 107% | 98.2% | 102% | 102% | 103% | 99.9% | 94.4% | 92.4% | 96% | 94.7% | 107% | 93.6% | 97.7% | 93.7% | 96% | 103% | 98.5% | 100% | 105% | 111% | 93.7% | 0 | 0 | 0 | 0 | 0 | > 10 µM | > 10 µM | > 10 µM | > 10 µM | > 10 µM |
| CC[C@@H](CO)NC(=O)[C@@H]1C=C2c3cccc4[nH]cc(c34)C[C@H]2N(C)C1 [methylergometrine] | 98.6% | 102% | 97.5% | 110% | 93.6% | 96.2% | 99.1% | 102% | 98.5% | 104% | 97.6% | 98% | 96.2% | 96.7% | 99.5% | 106% | 101% | 100% | 102% | 99.8% | 96.9% | 98.3% | 99.4% | 86.2% | 91.2% | 0 | 0 | 0 | 0 | 1.1 | > 10 µM | > 10 µM | > 10 µM | > 10 µM | > 10 µM |
| C1=N/C2=N/c3ccc(OCCN4CCCC4)c(c3)COC/C=C/COCc3cccc(c3)C(=C1)N2 [pacritinib] | 94.2% | 102% | 89.4% | 92.1% | 0.8% | 90.3% | 91.6% | 101% | 89.7% | 1.5% | 88.9% | 95.2% | 94.6% | 87.7% | 26% | 96.3% | 94.9% | 94.7% | 94.7% | 7.2% | 104% | 96.5% | 95.6% | 102% | 27.8% | 6.7 | 7.1 | 6.1 | 5.9 | 3.8 | 2.51 µM | 2.3 µM | 1.9 µM | 2.71 µM | 3.34 µM |
| O=C(O)C[C@H]1CC[C@H](c2ccc(-c3ccc(Nc4ccc(C(F)(F)F)nc4)cn3)cc2)CC1 [LCQ908] | 99.4% | 102% | 108% | 93.5% | 99.8% | 95.7% | 102% | 97% | 102% | 90.5% | 104% | 102% | 98.3% | 100% | 92.4% | 105% | 104% | 103% | 100% | 104% | 92.1% | 103% | 95% | 95.7% | 95.5% | 0 | 0 | 0 | 0 | 0 | > 10 µM | > 10 µM | > 10 µM | > 10 µM | > 10 µM |
| CC1(C)CC(=O)c2c(C(F)(F)F)nn(-c3ccc(C(N)=O)c(N[C@H]4CC[C@H](O)CC4)c3)c2C1 [SNX-2112] | 108% | 96.3% | 3.7% | 0.4% | 1.1% | 100% | 102% | 27.1% | 2.7% | 1.6% | 95.2% | 102% | 59.3% | 34.4% | 32.7% | 95.3% | 101% | 99.8% | 44.9% | 26.9% | 99.9% | 103% | 44.6% | 35.7% | 35.1% | 30.4 | 26.1 | 17.3 | 10.5 | 18.6 | 0.0313 µM | 0.0659 µM | 0.0844 µM | 0.639 µM | 0.0505 µM |
| Cc1nc2c(O)cccc2c(=O)[nH]1 [NU-1025] | 104% | 109% | 98.4% | 109% | 101% | 104% | 100% | 100% | 99.9% | 101% | 101% | 92.4% | 96.6% | 96.7% | 101% | 99.7% | 102% | 98.7% | 100% | 98.1% | 96.6% | 99.6% | 102% | 106% | 99.8% | 0 | 0 | 0 | 0 | 0 | > 10 µM | > 10 µM | > 10 µM | > 10 µM | > 10 µM |
| CCCc1nc(C)c2c(=O)nc(-c3cc(S(=O)(=O)N4CCN(CC)CC4)ccc3OCC)[nH]n12 [vardenafil] | 98.7% | 100% | 96.4% | 101% | 89.8% | 102% | 98.1% | 103% | 99.1% | 99.5% | 95.7% | 93% | 101% | 104% | 99.9% | 100% | 107% | 102% | 106% | 99.6% | 105% | 88.8% | 99.5% | 96.5% | 101% | 0 | 0 | 0 | 0 | 0 | > 10 µM | > 10 µM | > 10 µM | > 10 µM | > 10 µM |
| CN1CCCC(n2nc(Cc3ccc(Cl)cc3)c3ccccc3c2=O)CC1 (stereo not given) [azelastine] | 113% | 91.5% | 101% | 89.3% | 89.2% | 104% | 111% | 98.8% | 100% | 93.4% | 95.2% | 91.2% | 98.2% | 94.2% | 87% | 108% | 95% | 110% | 103% | 94.9% | 97.1% | 96.7% | 105% | 114% | 92.3% | 0.3 | 0 | 0 | 0 | 0 | > 10 µM | > 10 µM | > 10 µM | > 10 µM | > 10 µM |
| COC(=O)[C@H]1[C@H]2C[C@@H]3c4[nH]c5cc(OC)ccc5c4CCN3C[C@H]2C[C@@H](OC(=O)c2cc(OC)c(OC)c(OC)c2)[C@@H]1OC [reserpine] | 106% | 93.5% | 81.3% | 96% | 96.6% | 98% | 97.7% | 95.8% | 94.8% | 99.2% | 110% | 90.1% | 96.4% | 91.9% | 101% | 112% | 95.2% | 96.6% | 104% | 97.1% | 107% | 92.5% | 109% | 102% | 111% | 0 | 0 | 0 | 0 | 0 | > 10 µM | > 10 µM | > 10 µM | > 10 µM | > 10 µM |
| c1ccc2c(c1)sc1ccccc12 [dibenzothiophene] | 102% | 96.8% | 104% | 106% | 101% | 105% | 101% | 104% | 96.7% | 104% | 101% | 98.7% | 99.9% | 91.1% | 99.8% | 100% | 96.6% | 99% | 98.5% | 98.8% | 99.4% | 103% | 92.1% | 96.1% | 101% | 0 | 0 | 0 | 0 | 0 | > 10 µM | > 10 µM | > 10 µM | > 10 µM | > 10 µM |
